Source: the supplement of paper PMC10331698
± gives the standard deviation of the averaged measurements.

Key:
Test in all cases: level (log10 ratio to DMSO vehicle control); higher = higher biomarker level / cell amount than vehicle control
Conditions in all cases: in DMSO
[1] = compound: O=C(O)C=CC(F)(C(F)(F)F)C(F)(F)F [3-(Perfluoroisopropyl)-2-propenoic acid]
Experimental: (§1)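 BioMAP Diversity Plus panel of 12 human primary cell co-culture systems (3C, 4H, LPS, SAg, BT, BF4T, BE3C, CASM3C, HDF3CGF, KF3CT, MyoF, Mphg). Compounds were added 1 h before stimulation and left for 24 h (MyoF 48 h; BT 72 h for soluble read-outs or 6 d for IgG). Biomarkers were read by ELISA, cytotoxicity by SRB, PBMC viability and proliferation by Alamar Blue. Each well value was divided by the mean of 8 DMSO control wells on the same plate and log10 transformed; duplicate blinded samples were tested at 4 concentrations.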

[2] = compound: NS(=O)(=O)C(F)(F)C(F)(F)C(F)(F)C(F)(F)C(F)(F)C(F)(F)F [Perfluorohexanesulfonamide]
Experimental: as §1

Hexafluoroamylene glycol = compound: OCC(F)(F)C(F)(F)C(F)(F)CO [Hexafluoroamylene glycol]
Experimental: as §1

[3] = compound: FC(F)(F)C(F)(F)C(F)(F)CC1CO1 [1H,1H-Heptafluorobutyl epoxide]
Experimental: as §1

[4] = compound: FC(F)(F)C(F)(F)C(F)(F)C(F)(F)C(F)(F)C(F)(F)CC1CO1 [3-(Perfluorohexyl)-1,2-epoxypropane]
Experimental: as §1

Row | Test System | level (log10) ([1]; 6700 nM) | level (log10) ([1]; 20000 nM) | level (log10) ([1]; 60000 nM) | level (log10) ([2]; 6700 nM) | level (log10) ([2]; 20000 nM) | level (log10) ([2]; 60000 nM) | level (log10) (Hexafluoroamylene glycol; 6700 nM) | level (log10) (Hexafluoroamylene glycol; 20000 nM) | level (log10) (Hexafluoroamylene glycol; 60000 nM) | level (log10) ([3]; 6700 nM) | level (log10) ([3]; 20000 nM) | level (log10) ([3]; 60000 nM) | level (log10) ([4]; 6700 nM) | level (log10) ([4]; 20000 nM) | level (log10) ([4]; 60000 nM)
1 | BE3C:CD54/ICAM-1 | 0.002 ± 0.0057 | -0.005 | 0.004 ± 0.0071 | -0.0105 ± 0.025 | 0.003 ± 0.0028 | 0.017 ± 0.013 | 0.007 ± 0.016 | 0.002 ± 0.0057 | -0.001 ± 0.0014 | 0.001 ± 0.0028 | -0.013 ± 0.034 | 0.0055 ± 0.015 | 0.0035 ± 0.00071 | 0 ± 0.0071 | -0.0005 ± 0.005
2 | BE3C:CD87/uPAR | 0.005 ± 0.0085 | 0.002 ± 0.045 | 0.052 ± 0.038 | 0.0005 ± 0.0035 | -0.0055 ± 0.018 | -0.13 ± 0.018 | -0.0205 ± 0.011 | -0.016 ± 0.037 | 0.0025 ± 0.022 | 0.0105 ± 0.0092 | -0.004 ± 0.024 | -0.004 ± 0.023 | 0.0085 ± 0.029 | 0.032 ± 0.037 | 0.06 ± 0.0028
3 | BE3C:CXCL8/IL-8 | -0.0015 ± 0.035 | 0.003 ± 0.0057 | 0.0545 ± 0.059 | -0.0795 ± 0.044 | -0.161 ± 0.0078 | -0.3 ± 0.039 | -0.001 ± 0.031 | -0.003 ± 0.025 | 0.013 ± 0.034 | 0.01 ± 0.062 | 0.0235 ± 0.029 | 0.0505 ± 0.081 | 0.0215 ± 0.04 | 0.01 ± 0.031 | 0.0605 ± 0.015
4 | BE3C:CXCL9/MIG | 0.0135 ± 0.015 | 0.016 ± 0.017 | 0.0235 ± 0.013 | -0.0025 ± 0.0064 | -0.0005 ± 0.0078 | -0.0065 ± 0.0078 | -0.003 ± 0.0085 | -0.0055 ± 0.0035 | 0.0025 ± 0.011 | -0.0125 ± 0.0064 | 0 ± 0.0028 | -0.0075 ± 0.0064 | 0.0095 ± 0.018 | 0.0185 ± 0.016 | 0.023 ± 0.0057
5 | BE3C:CXCL11/I-TAC | -0.0175 ± 0.0078 | -0.009 ± 0.0057 | 0.005 ± 0.011 | 0.0015 ± 0.052 | -0.023 ± 0.035 | -0.107 ± 0.067 | 0.002 ± 0.021 | 0.013 ± 0.045 | 0.035 ± 0.018 | 0.0015 ± 0.00071 | 0.0115 ± 0.005 | 0.013 ± 0.0014 | -0.0115 ± 0.011 | -0.02 ± 0.011 | -0.009 ± 0.014
6 | BE3C:EGFR | 0.0005 ± 0.016 | 0.0085 ± 0.00071 | 0.004 ± 0.0014 | 0.023 ± 0.0057 | 0.0205 ± 0.033 | 0.014 ± 0.017 | 0.0035 ± 0.005 | -0.0115 ± 0.0078 | 0.009 ± 0.0071 | -0.0025 ± 0.0064 | -0.0045 ± 0.0064 | -0.018 ± 0.0042 | -0.001 ± 0.0085 | -0.0015 ± 0.0035 | 0.007 ± 0.013
7 | BE3C:HLA-DR | -0.0075 ± 0.013 | 0.0035 ± 0.015 | 0.0095 ± 0.018 | -0.01 ± 0.0042 | -0.032 ± 0.018 | -0.0685 ± 0.018 | -0.0155 ± 0.0092 | -0.017 ± 0.014 | -0.019 ± 0.024 | 0.002 ± 0.013 | -0.0075 ± 0.012 | -0.01 ± 0.025 | 0 ± 0.0099 | -0.0025 ± 0.011 | 0.006 ± 0.017
8 | BE3C:IL-1alpha | -0.001 ± 0.031 | -0.0065 ± 0.0064 | 0.0025 ± 0.005 | -0.0195 ± 0.00071 | -0.022 ± 0.013 | -0.0885 ± 0.016 | -0.002 ± 0.0085 | 0.002 | 0.0135 ± 0.0092 | 0.024 ± 0.024 | 0.01 ± 0.051 | 0.0265 ± 0.066 | -0.0215 ± 0.0021 | -0.003 | 0 ± 0.0014
9 | BF4T:CCL2/MCP-1 | 0.0045 ± 0.023 | 0.003 ± 0.013 | 0.0505 ± 0.076 | -0.0415 ± 0.018 | -0.072 ± 0.0085 | -0.107 ± 0.0042 | 0.013 ± 0.013 | 0.0145 ± 0.016 | 0.039 ± 0.045 | 0.005 ± 0.0014 | -0.0095 ± 0.0035 | 0.014 ± 0.0042 | -0.003 ± 0.028 | -0.007 ± 0.028 | 0.017 ± 0.028
10 | BF4T:CCL26/Eotaxin-3 | -0.0085 ± 0.057 | -0.005 ± 0.013 | 0.0165 ± 0.029 | -0.017 ± 0.018 | -0.064 ± 0.0028 | -0.151 ± 0.012 | 0.003 ± 0.051 | 0.002 ± 0.0071 | 0.0395 ± 0.042 | -0.001 ± 0.013 | 0.0095 ± 0.0035 | 0.01 ± 0.011 | -0.0225 ± 0.076 | -0.016 ± 0.065 | 0.001 ± 0.0042
